Measured values from patent publication US20250154099A1, “PREPARATION METHOD OF 2-PHENYLINDOLE DERIVATIVES AND APPLICATION THEREOF” (Shihezi University, priority 2022, published 2025).
≈ marks a conversion by molar mass, not a printed value. Read-outs that look alike come from different tables or passages of the source.

Tests used:
Type in all cases: cell-based
[1] = system: Aspergillus fumigatus Fresenius BNCC338385; test: MIC by microdilution method, sensitive Aspergillus fumigatus Fresenius; details: 24 h; for MIC: Aspergillus fumigatus, read-out: MIC Aspergillus fumigatus Fresenius
Text: (§1) Used bacteria: including drug-resistant bacteria and sensitive bacteria: the used sensitive strains include Cryptococcus neoformans BNCC225501, Candida albicans BNCC186382, Aspergillus fumigatus Fresenius BNCC338385, Escherichia coli BNCC336902, Staphylococcus aureus BNCC186335 and Pseudomonas aeruginosa Migula BNCC337940, and the used drug-resistant Candida albicans is clinically isolated azole multi-drug resistant Candida albicans (CA10) donated by Qianfoshan Hospital in Shandong Province. The strains are stored in normal saline containing 20% glycerol at −80° C. for a long time. Before operation, the strains are lined and transferred to a YPD solid plate, and subjected to static culture at 30° C. for 24 h; single colonies are selected and transferred to a YPD liquid medium, and cultured at 200 rpm at 30° C. overnight; and the overnight cultured bacterial solution is inoculated into a new YPD liquid medium at a ratio of about 1:100, and subjected to shaking culture at 200 rpm at 30° C. for 4 h so that Candida albicans is in a logarithmic phase.
(§2) Culture medium: the culture medium used by the microdilution method is RPMI-1640 culture medium (Gibco).
(§3) 1.2 Operation and results of detection of minimum inhibitory concentration (MIC) of the compounds and the azole drugs by the microdilution method: the MIC of the synthesized compound and the azole drug fluconazole for the standard strains is detected by the microdilution method according to fungal sensitivity detection method (M27-A3) established by the Clinical and Laboratory Standards Institute (CLSI). Specific steps are as follows: the prepared strain concentration is adjusted to 0.5-2.5×10^3 CFU/mL by using RPMI-1640 medium. 200 μL of bacterial solution containing the highest concentration of the drug to be detected is added into the first well of a 96-well plate, and 100 μL of blank bacterial solution without drug is added into each of the other wells; the bacterial solution is diluted to a series of concentration gradients by a double gradient dilution method; the well plate is subjected to static culture at constant temperature of 35° C. for 24 h; after the absorbance (OD) of each concentration gradient at 570 nm is detected by a microplate reader and the absorbance of a blank medium is subtracted, the growth rate=dosing hole value/control hole value ×100%, the inhibition rate=1−growth rate, and the minimum concentration with the inhibition rate greater than 80% is the minimum inhibitory concentration (MIC) value.

[2] = system: Candida albicans BNCC186382; test: MIC by microdilution method, sensitive Candida albicans; details: for MIC: Candida albicans, read-out: MIC Candida albicans
Text: as §1, §2, §3

[3] = system: Cryptococcus neoformans BNCC225501; test: MIC by microdilution method, sensitive Cryptococcus neoformans; details: for MIC: Cryptococcus neoformans, read-out: MIC Cryptococcus neoformans
Text: as §1, §2, §3

[4] = system: Staphylococcus aureus BNCC186335; test: MIC by microdilution method, sensitive Staphylococcus aureus; details: read-out: MIC Staphylococcus aureus
Text: as §1, §2, §3

[5] = system: Pseudomonas aeruginosa Migula BNCC337940; test: MIC by microdilution method, sensitive Pseudomonas aeruginosa Migula; details: 24 h, read-out: MIC Pseudomonas aeruginosa Migula
Text: as §1, §2, §3

[6] = system: Drug-resistant Candida albicans CA10; test: MIC by microdilution method, drug-resistant Candida albicans CA10; details: clinically isolated azole multi-drug resistant strain CA10; 24 h
Text: as §1, §2, §3

[7] = system: Escherichia coli BNCC336902; test: MIC by microdilution method, sensitive Escherichia coli; details: read-out: MIC Escherichia coli
Text: as §1, §2, §3

[8] = sensitive strain, 35° C., minimum concentration with inhibition rate greater than 80%
[9] = sensitive strain, 35° C., 24 h, minimum concentration with inhibition rate greater than 80%
[10] = BNCC186335, sensitive strain, 35° C., 24 h, minimum concentration with inhibition rate greater than 80%
[11] = BNCC186382, sensitive strain, 35° C., 24 h, minimum concentration with inhibition rate greater than 80%
[12] = BNCC225501, sensitive strain, 35° C., 24 h, minimum concentration with inhibition rate greater than 80%
[13] = BNCC336902, sensitive strain, 35° C., 24 h, minimum concentration with inhibition rate greater than 80%

Row | SMILES | MIC Aspergillus fumigatus Fresenius [1, 8] [mg/L] | MIC Candida albicans [2, 9] [mg/L] | MIC Cryptococcus neoformans [3, 9] [mg/L] | MIC ([4]; BNCC186335, 24 h) [mg/L] | MIC [5] [mg/L] | MIC [1] [mg/L] | MIC ([2]; BNCC186382, 24 h) [mg/L] | MIC80 Drug-resistant Candida albicans CA10 [6] [mg/L] | MIC ([3]; BNCC225501, 24 h) [mg/L] | MIC ([7]; BNCC336902, 24 h) [mg/L] | MIC [4, 10] [mg/L] | MIC [5, 8] [mg/L] | MIC [1, 8] [mg/L] | MIC [2, 11] [mg/L] | MIC [3, 12] [mg/L] | MIC [7, 13] [mg/L]
1 | C[C@@H]1[C@H](O)[C@@H](C)/C=C/C=C/C=C/C=C/C=C/C=C/C=C/[C@H](O[C@@H]2O[C@H](C)[C@@H](O)[C@H](N)[C@@H]2O)C[C@@H]2O[C@](O)(C[C@@H](O)C[C@@H](O)[C@H](O)CC[C@@H](O)C[C@@H](O)CC(=O)O[C@H]1C)C[C@H](O)[C@H]2C(=O)O [Amphotericin B, amphotericin B, reference compound] | 16 (≈ 17.3 µM) | 2 (≈ 2.16 µM) | 64 (≈ 69.3 µM) |  |  |  |  |  |  |  |  |  |  |  |  | 
2 | COc1cccc(-c2cc3ccccc3[nH]2)c1 [Compound 1] |  |  |  | 64 (≈ 287 µM) | 8 (≈ 35.8 µM) | 8 (≈ 35.8 µM) | 16 (≈ 71.7 µM) | > 256 | 4 (≈ 17.9 µM) | 4 (≈ 17.9 µM) |  |  |  |  |  | 
3 | COc1ccc2cc(-c3ccccc3)[nH]c2c1 [Compound 3] |  |  |  |  |  |  |  | > 256 |  |  | 256 (≈ 1150 µM) | 64 (≈ 287 µM) | 256 (≈ 1150 µM) | 256 (≈ 1150 µM) | 256 (≈ 1150 µM) | 256 (≈ 1150 µM)
4 | c1ccc(-c2cc3ccccc3[nH]2)cc1 [Compound 6] |  |  |  | > 256 | > 256 | > 256 | > 256 | > 256 | 256 (≈ 1320 µM) | > 256 |  |  |  |  |  | 
5 | Cc1cccc(-c2cc3ccccc3[nH]2)c1 [Compound 7] |  |  |  | 8 (≈ 38.6 µM) | 256 (≈ 1240 µM) | 256 (≈ 1240 µM) | 256 (≈ 1240 µM) | > 256 | 256 (≈ 1240 µM) | 8 (≈ 38.6 µM) |  |  |  |  |  | 
6 | Cc1ccc(-c2cc3ccccc3[nH]2)cc1 [Compound 8] |  |  |  | 256 (≈ 1240 µM) | 256 (≈ 1240 µM) | 256 (≈ 1240 µM) | 256 (≈ 1240 µM) | > 256 | 256 (≈ 1240 µM) | 8 (≈ 38.6 µM) |  |  |  |  |  | 
7 | Fc1ccc(-c2cc3ccccc3[nH]2)cc1 [Compound 10] |  |  |  | > 256 | > 256 | > 256 | > 256 | > 256 | > 256 | > 256 |  |  |  |  |  | 
8 | Clc1ccc(-c2cc3ccccc3[nH]2)cc1 [Compound 11] |  |  |  | > 256 | > 256 | > 256 | > 256 | > 256 | > 256 | > 256 |  |  |  |  |  | 
9 | O=[N+]([O-])c1cccc(-c2cc3ccccc3[nH]2)c1 [Compound 12] |  |  |  | 256 (≈ 1070 µM) | 2 (≈ 8.39 µM) | 4 (≈ 16.8 µM) | 4 (≈ 16.8 µM) | > 256 | 8 (≈ 33.6 µM) | 8 (≈ 33.6 µM) |  |  |  |  |  | 
10 | FC(F)(F)c1ccc(-c2cc3ccccc3[nH]2)cc1 [Compound 13] |  |  |  | 256 (≈ 980 µM) | 16 (≈ 61.2 µM) | 256 (≈ 980 µM) | 256 (≈ 980 µM) | > 256 | 256 (≈ 980 µM) | 256 (≈ 980 µM) |  |  |  |  |  | 
11 | c1ccc2[nH]c(-c3ccc4c(c3)OCO4)cc2c1 [Compound 15] |  |  |  | 256 (≈ 1080 µM) | 16 (≈ 67.4 µM) | 256 (≈ 1080 µM) | 256 (≈ 1080 µM) | > 256 | 256 (≈ 1080 µM) | 256 (≈ 1080 µM) |  |  |  |  |  | 
12 | Cc1ccc2[nH]c(-c3ccccc3)cc2c1 [Compound 16] |  |  |  |  |  |  |  | > 256 |  |  | 256 (≈ 1240 µM) | 256 (≈ 1240 µM) | 256 (≈ 1240 µM) | 256 (≈ 1240 µM) | 256 (≈ 1240 µM) | 16 (≈ 77.2 µM)
13 | COc1ccc2[nH]c(-c3ccccc3)cc2c1 [Compound 18] |  |  |  |  |  |  |  | > 256 |  |  | 256 (≈ 1150 µM) | 256 (≈ 1150 µM) | 256 (≈ 1150 µM) | 256 (≈ 1150 µM) | 256 (≈ 1150 µM) | 256 (≈ 1150 µM)
14 | [H]/N=C(/N)N[C@H]1[C@H](O)[C@@H](O)[C@H](O[C@@H]2O[C@@H](C)[C@](O)(C=O)[C@H]2O[C@@H]2O[C@@H](CO)[C@H](O)[C@@H](O)[C@@H]2NC)[C@@H](N/C(N)=N\[H])[C@@H]1O [Streptomycin, reference compound] |  |  |  |  |  |  |  |  |  |  | 2 (≈ 3.44 µM) | 2 (≈ 3.44 µM) |  |  |  | 2 (≈ 3.44 µM)
